Like-named read-outs stand apart in the source and are kept apart here.
Assays:
[1] = test system: norepinephrine uptake by synaptosomes from rat brain; assay: blockage of norepinephrine uptake by synaptosomes from rat brain; assay type: biochemical; conditions: Table 1, norepinephrine 0.48 μM
Source text: (§1) This blockade is shown both in vitro with radioactive labelled compounds to determine the amount of monoamine uptake by synaptosomes from rat brain, and in vivo by a variety of methods. Among the physiologically active monoamines whose uptake is blocked by the compounds of this invention are included serotonin, norepinephrine and dopamine (3,4-dihydroxyphenylethylamine). […] Tables 1 and 2 which follow set forth the results of some of the in vitro determinations of the blockage of monoamine uptake by the compounds of this invention. In the tables, column 1 gives the R substituent on the 3-phenylpropylamine and columns 2-4, the concentration in micrograms per ml. that blocks the uptake of a particular amine by 50 percent for the amines--norephinephrine, serotonin, and dopamine. At the head of each column is given the concentration of the particular monoamine used in the experiment.

[2] = test system: serotonin uptake by synaptosomes from rat brain; assay: blockage of serotonin uptake by synaptosomes from rat brain; assay type: biochemical; conditions: Table 1, serotonin 0.1 μM
Source text: In the tables, column 1 gives the R substituent on the 3-phenylpropylamine and columns 2-4, the concentration in micrograms per ml. that blocks the uptake of a particular amine by 50 percent for the amines--norephinephrine, serotonin, and dopamine. At the head of each column is given the concentration of the particular monoamine used in the experiment.

[3] = test system: dopamine uptake by synaptosomes from rat brain; assay: blockage of dopamine uptake by synaptosomes from rat brain; assay type: biochemical; conditions: Table 1, dopamine 0.2 μM
Source text: as §1

mice [4] = assay: apomorphine hypothermia antagonism test; assay type: in vivo; conditions: for inhibition in vivo at 0.3 mg/kg / inhibition in vivo at 1 mg/kg / inhibition in vivo at 3 mg/kg / inhibition in vivo at 10 mg/kg: Mus musculus, read-out: Percent Antagonism Apomorphine Pre-30 min.; for inhibition in vivo at 0.3 mg/kg / inhibition in vivo at 1 mg/kg / inhibition in vivo at 3 mg/kg / inhibition in vivo at 10 mg/kg / Percent Antagonism Apomorphine Pre-30 min.: mice; for antagonism of apomorphine hypothermia: in words
Procedure: (§2) The apomorphine hypothermia antagonism test is carried out as follows: mice are injected with a dose of apomorphine known to reduce body temperature approximately 4° C. The compound under test is injected 1/2 hour before the injection of the apomorphine and the temperatures measured 1/2 hour after injection. The degree of antagonism is expressed as a percent reduction (as compared with controls) of the temperature decrease produced by the injection of the apomorphine. The reserpine hypothermia reversal test is carried out as follows: groups of mice are injected with reserpine and 16.5 hours later are injected intraperitoneally with graded doses of the drug, a different dose level being given to each group of mice. Temperatures are measured at 1 hour after injection of the drug under test and again the effectiveness of the drug is expressed as a percentage decrease in the hypothermia induced by the injection of reserpine as compared with the control group. In the tables which follow, Table 4 gives the results in the apomorphine antagonism and reserpine reversal hypothermia tests for the secondary amines of this invention. In the table, the first column gives the substituent attached to the oxygen atom at the 3 position of the propylamine chain; columns 2 to 4 the percent antagonism against apomorphine hypothermia at dose levels of 0.3, 1 and 3 mg./kg. and columns 5-7 the percent reversal of reserpine hypothermia at the same dose levels.

mice [5] = assay: reserpine hypothermia reversal test; assay type: in vivo; conditions: for reversal of reserpine hypothermia: in words
Procedure: as §2

[6] = Table 4, mice, 1 mg./kg. intraperitoneally
[7] = Table 4, mice, 3 mg./kg. intraperitoneally
[8] = Table 5, mice, 1 mg./kg. intraperitoneally
[9] = Table 5, mice, 3 mg./kg. intraperitoneally
[10] = Table 5, mice, 10 mg./kg. intraperitoneally

SMILES	Concentration in mcg./ml. that blocks 50% of amine uptake, Norepinephrine [1]	Concentration in mcg./ml. that blocks 50% of amine uptake, Serotonin [2]	Concentration in mcg./ml. that blocks 50% of amine uptake, Dopamine [3]	Percent Antagonism Apomorphine Pre-30 min. (mice [4]; Table 5, 3 mg./kg.) [%]	Percent Antagonism Apomorphine Pre-30 min. (mice [4]; Table 5, 10 mg./kg.) [%]	Percent Antagonism Reserpine Post-60 min. (mice [5]; [10]) [%]	other results
CN(C)CCC(Oc1ccc(F)cc1F)c1ccccc1 (centres unmarked) [2,4-difluorophenyl, N,N-dimethyl 3-(2',4'-difluorophenoxy)-3-phenylpropylamine]	.2 µg/mL	.3 µg/mL	10 µg/mL				inhibition in vivo at 0.3 mg/kg (mice [4]; Table 4, 0.3 mg./kg.): 20%; inhibition in vivo at 1 mg/kg (mice [4]; Table 4, 1 mg./kg.): 53%; inhibition in vivo at 3 mg/kg (mice [4]; Table 4, 3 mg./kg.): 64%; inhibition in vivo at 1 mg/kg (mice [4]; Table 5, 1 mg./kg.): 26%; inhibition in vivo at 3 mg/kg (mice [4]; Table 5, 3 mg./kg.): 55%; inhibition in vivo at 10 mg/kg (mice [4]; Table 5, 10 mg./kg.): 98%
Cc1cc(F)ccc1OC(CCN(C)C)c1ccccc1 (centres unmarked) [4-fluoro-o-tolyl, N,N-dimethyl 3-(p-fluoro-o-tolyloxy)-3-phenylpropylamine]	2.5 µg/mL	.6 µg/mL	40 µg/mL				
CN(C)CCCN1c2ccccc2CCc2ccccc21 [imipramine, reference compound]							antagonism of apomorphine hypothermia (mice [4]): active; reversal of reserpine hypothermia (mice [5]): active
CNCCC(Oc1cccc(OC)c1)c1ccccc1 (centres unmarked) [m-anisyl, N-methyl 3-phenyl-3-(m-methoxyphenoxy)propylamine]				-7	-5	5	Percent Antagonism Apomorphine Pre-30 min. (mice [4]; Table 4, 0.3 mg./kg.): 15%; Percent Antagonism Apomorphine Pre-30 min. (mice [4]; Table 4, 1 mg./kg.): 15%; Percent Antagonism Apomorphine Pre-30 min. (mice [4]; Table 4, 3 mg./kg.): 71%; Percent Antagonism Apomorphine Pre-30 min. (mice [4]; Table 5, 1 mg./kg.): -12%; Percent Antagonism Reserpine Post-60 min. (mice [5]; Table 4, mice, 0.3 mg./kg. intraperitoneally): 8%; Percent Antagonism Reserpine Post-60 min. (mice [5]; [6]): 21%; Percent Antagonism Reserpine Post-60 min. (mice [5]; [7]): 21%; Percent Antagonism Reserpine Post-60 min. (mice [5]; [8]): -1%; Percent Antagonism Reserpine Post-60 min. (mice [5]; [9]): 6%
COc1cccc(OC(CCN(C)C)c2ccccc2)c1 (centres unmarked) [m-methoxyphenyl, N,N-dimethyl 3-phenyl-3-(m-methoxyphenoxy)propylamine]	.2 µg/mL	.08 µg/mL	.5 µg/mL				
Cc1cccc(OC(CCN(C)C)c2ccccc2)c1 (centres unmarked) [m-tolyl, N,N-dimethyl 3-phenyl-3-(m-tolyloxy)propylamine]	12 µg/mL	.7 µg/mL					
CN(C)CCC(Oc1cccc(C(F)(F)F)c1)c1ccccc1 (centres unmarked) [m-trifluoromethylphenyl, N,N-dimethyl 3-phenyl-3-(m-trifluoromethylphenoxy) propylamine]	8 µg/mL	.18 µg/mL	> 100 µg/mL				
CNCCC=C1c2ccccc2CCc2ccccc21 [nortriptyline, reference compound]							antagonism of apomorphine hypothermia (mice [4]): active; reversal of reserpine hypothermia (mice [5]): active
C=CCc1ccccc1OC(CCN(C)C)c1ccccc1 (centres unmarked) [o-allylphenyl, N,N-dimethyl 3-phenyl-3-(o-allylphenoxy)propylamine]							inhibition in vivo at 3 mg/kg (mice [4]; Table 5, 3 mg./kg.): 11%; inhibition in vivo at 10 mg/kg (mice [4]; Table 5, 10 mg./kg.): 67%
CN(C)CCC(Oc1ccccc1Br)c1ccccc1 (centres unmarked) [o-bromophenyl, N,N-dimethyl 3-(o-bromophenoxy)-3-phenylpropylamine]		.1 µg/mL	5 µg/mL	40	47	30	Percent Antagonism Apomorphine Pre-30 min. (mice [4]; Table 5, 1 mg./kg.): 19%; Percent Antagonism Reserpine Post-60 min. (mice [5]; [9]): 18%
CN(C)CCC(Oc1ccccc1Cl)c1ccccc1 (centres unmarked) [o-chlorophenyl, N,N-dimethyl 3-(o-chlorophenoxy)-3-phenylpropylamine]	.45 µg/mL	.2 µg/mL	.2 µg/mL	-17	57	25	Percent Antagonism Apomorphine Pre-30 min. (mice [4]; Table 5, 1 mg./kg.): -10%; Percent Antagonism Reserpine Post-60 min. (mice [5]; [8]): 3%; Percent Antagonism Reserpine Post-60 min. (mice [5]; [9]): 4%
CCc1ccccc1OC(CCN(C)C)c1ccccc1 (centres unmarked) [o-ethylphenyl, N,N-dimethyl 3-(o-ethylphenoxy)-3-phenylpropylamine]	> 100 µg/mL	3.5 µg/mL	> 100 µg/mL	20	74	35	Percent Antagonism Reserpine Post-60 min. (mice [5]; [8]): 17%; Percent Antagonism Reserpine Post-60 min. (mice [5]; [9]): 13%
CN(C)CCC(Oc1ccccc1F)c1ccccc1 (centres unmarked) [o-fluorophenyl]							inhibition in vivo at 10 mg/kg (mice [4]; Table 5, 10 mg./kg.): 3%
CC(C)c1ccccc1OC(CCN(C)C)c1ccccc1 (centres unmarked) [o-isopropylphenyl]	1.5 µg/mL	> 100 µg/mL	> 100 µg/mL				inhibition in vivo at 1 mg/kg (mice [4]; Table 5, 1 mg./kg.): 17%; inhibition in vivo at 3 mg/kg (mice [4]; Table 5, 3 mg./kg.): 39%; inhibition in vivo at 10 mg/kg (mice [4]; Table 5, 10 mg./kg.): 65%; inhibition in vivo at 0.3 mg/kg (mice [4]; Table 5, .3 mg./kg.): 3%
CCOc1ccccc1OC(CCN(C)C)c1ccccc1 (centres unmarked) [o-phenetyl, N,N-dimethyl 3-(o-ethoxyphenoxy)-3-phenylpropylamine]	3 µg/mL	6 µg/mL	> 100 µg/mL	13	76	40	Percent Antagonism Reserpine Post-60 min. (mice [5]; [9]): 16%
CN(C)CCC(Oc1ccccc1C(C)(C)C)c1ccccc1 (centres unmarked) [o-t-butylphenyl, N,N-dimethyl 3-phenyl-3-(o-t-butylphenoxy)propylamine]	1.5 µg/mL	40 µg/mL	> 100 µg/mL				
CN(C)CCC(Oc1ccccc1C(F)(F)F)c1ccccc1 (centres unmarked) [o-trifluoromethylphenyl, N,N-dimethyl 3-(o-trifluoromethylphenoxy)-3-phenylpropylamine]	70 µg/mL	.16 µg/mL		32	55	10	Percent Antagonism Apomorphine Pre-30 min. (mice [4]; Table 4, 1 mg./kg.): 13%; Percent Antagonism Apomorphine Pre-30 min. (mice [4]; Table 4, 3 mg./kg.): 28%; Percent Antagonism Apomorphine Pre-30 min. (mice [4]; Table 5, 1 mg./kg.): 21%; Percent Antagonism Reserpine Post-60 min. (mice [5]; [6]): 9%; Percent Antagonism Reserpine Post-60 min. (mice [5]; [7]): 8%
COc1ccc(OC(CCN(C)C)c2ccccc2)cc1 (centres unmarked) [p-anisyl]							inhibition in vivo at 3 mg/kg (mice [4]; Table 5, 3 mg./kg.): 25%; inhibition in vivo at 3 mg/kg (mice [5]; Mus musculus, ip, 1 h, Table 5, mice, 3 mg./kg. intraperitoneally, read-out: Percent Antagonism Reserpine Post-60 min.): 67%
CN(C)CCC(Oc1ccc2ccccc2c1)c1ccccc1 (stereo not drawn) [β-naphthyl, N,N-dimethyl 3-(β-naphthyloxy)-3-phenylpropylamine]	> 100 µg/mL	1 µg/mL	> 100 µg/mL				

— patent publication US4194009A, “Aryloxyphenylpropylamines for obtaining a psychotropic effect” (Eli Lilly and Company, priority 1976, dated 1980)
